Results taken from patent publication US5354767A, “Renin inhibiting polyhydroxy-monoamides” (Bio-Mega, Inc., priority 1991, dated 1994).
pIC50: −log10 of the molar value.

target: T1, human renin (Homo sapiens, UniProt P00797); assay: Plasma renin assay (angiotensin I generated in human plasma pool, RIA); type: biochemical; conditions: human plasma pool as source of renin and angiotensinogen; pH 6.0; 2 h at 37°; 1% dimethylsulfoxide
T1 construct: A human plasma pool is used as the source of both the substrate (angiotensinogen) and the enzyme (renin); from tissue; host or cells: human plasma pool
T1 sequence (P00797 67-406): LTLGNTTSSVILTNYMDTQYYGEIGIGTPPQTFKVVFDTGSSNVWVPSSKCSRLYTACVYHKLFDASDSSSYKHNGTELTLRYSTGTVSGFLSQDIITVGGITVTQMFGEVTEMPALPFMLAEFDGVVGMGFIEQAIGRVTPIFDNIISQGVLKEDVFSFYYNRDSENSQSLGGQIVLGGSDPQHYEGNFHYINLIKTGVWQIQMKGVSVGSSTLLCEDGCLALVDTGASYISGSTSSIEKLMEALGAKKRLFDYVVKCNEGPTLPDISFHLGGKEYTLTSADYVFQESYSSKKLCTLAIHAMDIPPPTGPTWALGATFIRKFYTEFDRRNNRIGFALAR
Method: The assay is performed as follows: The test compound (i.e. the inhibitor) is dissolved in dimethylsulfoxide(1mM stock solution) and diluted with an aqueous buffer solution of 270 mM 2-(N-morpholino)ethanesulfonic acid and 1% human serum albumin (pH 5.85, also containing dimercaprol and 8-hydroxyquinoline sulfate in accordance with the instructions of the RIA kit noted below) to give an assay mixture in which the final dimethylsulfoxide content is 1% (v/v).
A human plasma pool is used as the source of both the substrate (angiotensinogen) and the enzyme (renin). The reaction is initiated by the addition of 50 μL of human plasma pool to 50 μL of various concentrations of inhibitor in the 1% dimethylsulfoxide assay buffer. The plasma renin activity is measured by the amount of angiotensin I generated at pH 6.0 following a 2 h incubation at 37°.
Quantitation of angiotensin I is performed by radioinununoassay (RIA kit from New England Nuclear-Dupont, Mississauga, ON, Canada). The enzymatic activity of renin is expressed in ng of angiotensin I generated/mL/2 h. The extent of inhibition of the reaction is determined from the amount of angiotensin I generated in reference to a control prepared without inhibitor. Nonlinear regression analysis is used to calculate the IC50 values, i.e. the molar concentration of the test compound required to cause a 50% inhibition of the enzyme activity.
The following table exemplifies results obtained for compounds of formula 1.

pIC50 | Compound
7.42 | CC(C)C[C@H](O)[C@H](O)[C@H](CC1CCCCC1)NC(=O)[C@H](CC1CC1)C[C@@H](O)[C@H](O)Cc1ccccc1 [Corresponding (2R,4R,5R)-isomer of title compound of example 2]
7.66 | CC(C)C[C@H](O)[C@H](O)[C@H](CC1CCCCC1)NC(=O)[C@H](CC1CC1)C[C@H](O)[C@@H](O)Cc1ccccc1 [Title compound of example 2, (2R, 4S, 5S)-N-[1(S)-(Cyclohexylmethyl)-2(R), 3(S)-dihydroxy-5-methylhexyl]-2-(cyclopropylmethyl)-4,5-dihydroxy-6-phenylhexanamide]
6.96 | CC(C)C[C@H](O)[C@H](O)[C@H](CC1CCCCC1)NC(=O)[C@H](CC1CC1)C[C@H](O)[C@H](O)Cc1ccccc1 [Title compound of example 4, (2R, 4S , 5R)-N-[1(S)-(Cyclohexylmethyl)-2(R), 3(S)-dihydroxy-5methylhexyl]-2-(cyclopropylmethyl)-4,5-dihydroxy-6-phenylhexanamide]
7.32 | CC(C)C[C@H](O)[C@H](O)[C@H](CC1CCCCC1)NC(=O)[C@H](CC1CC1)C[C@@H](O)[C@@H](O)Cc1ccccc1 [Title compound of example 5, (2R, 4R, 5S)-N-[1(S)-(Cyclohexylmethyl)-2(R), 3(S)-dihydroxy-5-methylhexyl]-2-(cyclopropylmethyl)-4,5-dihydroxy-6-phenylhexanamide]
7.68 | CC(C)C[C@H](O)[C@H](O)[C@H](CC1CCCCC1)NC(=O)[C@H](CC1CC1)[C@@H](O)C[C@H](O)Cc1ccccc1 [Title compound of example 10, (2R,3S,5R)-N-[1(S)-(Cyclohexylmethyl)-2(R), 3(S)-dihydroxy-5-methylhexyl]-2-(cyclopropylmethyl)-3,5-dihydroxy-6-phenylhexanamide]
6.59 | CC(C)C[C@H](O)[C@H](O)[C@H](CC1CCCCC1)NC(=O)[C@H](CC1CC1)[C@H](O)C[C@H](O)Cc1ccccc1 [Title compound of example 11, (2R,3R,5R)-N-[1(S)-(Cyclohexylmethyl)-2(R),3(S)-dihydroxy-5-methylhexyl]-2-(cyclopropylmethyl)-3,5-dihydroxy-6-phenylhexanamide]
6.00 | CC(C)C[C@H](O)[C@H](O)[C@H](CC1CCCCC1)NC(=O)[C@H](CC1CC1)[C@H](O)C[C@@H](O)Cc1ccccc1 [Title compound of example 12, (2R, 3R, 5S)-N-[1(S)-(Cyclohexylmethyl)-2(R), 3(S)-dihydroxy-5-methylhexyl]-2-(cyclopropylmethyl)-3,5-dihydroxy-6-phenylhexanamide]
6.76 | CC(C)C[C@H](O)[C@H](O)[C@H](CC1CCCCC1)NC(=O)[C@H](CC1CC1)[C@@H](O)C[C@@H](O)Cc1ccccc1 [Title compound of example 13]

same assay, conditions: values in parentheses in the list of other examples; assay not restated there

pIC50 | Compound
6.76 | CC(C)C[C@H](O)[C@H](O)[C@H](CC1CCCCC1)NC(=O)[C@H](Cc1cnc[nH]1)C[C@@H](O)[C@H](O)Cc1ccccc1
6.66 | Cc1nc(C[C@H](C[C@H](O)[C@@H](O)Cc2ccccc2)C(=O)N[C@@H](CC2CCCCC2)[C@@H](O)[C@@H](O)CC(C)C)cs1
6.31 | CC(C)C[C@H](O)[C@H](O)[C@H](CC1CCCCC1)NC(=O)[C@H](Cc1cccs1)C[C@H](O)[C@@H](O)Cc1ccccc1
